From article PMC8067766 (International Journal of Molecular Sciences, 2021)
Where a SMILES comes first, the peptide text is derived from it.

How the values were obtained:
[1] = biological target: T1, human neutrophil elastase (Homo sapiens, UniProt P08246); assay: Incubation with neutrophil elastase (release of active sequence); type: in vitro ADME; settings: non-fibrillated peptide 1.0 mM, 0.1 M Tris HCl, 500 mM NaCl, 0.05% Triton X-100, 20 mM CaCl2, pH 7.5; enzyme 150 nM; 30 min, 37 °C; RP-UHPLC (PDA) and LC-MS
T1 construct: purchased Sigma Aldrich
T1 sequence (P08246 30-267): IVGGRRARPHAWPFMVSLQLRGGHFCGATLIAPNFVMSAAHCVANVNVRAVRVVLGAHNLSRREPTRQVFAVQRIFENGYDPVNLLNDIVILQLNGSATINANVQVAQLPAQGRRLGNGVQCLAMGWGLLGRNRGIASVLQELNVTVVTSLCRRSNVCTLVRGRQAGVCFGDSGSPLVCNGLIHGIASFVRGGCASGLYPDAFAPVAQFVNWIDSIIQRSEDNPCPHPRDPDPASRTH
Protocol: An enzymatic stability study was performed using the human neutrophil elastase enzyme (Sigma Aldrich, St. Louis, MO, USA). The peptides were dissolved in a buffer (with composition: 0.1 M Tris HCl, 500 mM NaCl, 0.05% Triton X-100, 20 mM CaCl2, pH 7.5), to a final concentration 1.0 mM. The fibrils formed in the aggregation process were dissolved in PBS at pH 7.4 to a concentration of 1 mg/mL. The enzyme was added to the peptide/fibril solution to a concentration of 150 nM and incubated for 30 min (peptides) or 60 min (fibrils), at 37 °C, with agitation. A 10% aqueous TFA solution was added to the reaction mixture to stop the digestion. The progress of the reaction was monitored by RP-UHPLC with a PDA (Photo Diode Array) detector on a Kinetex C8 column (2.6 μm, 100 Å 2.6 × 100 mm, Phenomenex, Torrance, CA, USA), at a gradient of 0–50% B for 15 min, and by LC-MS.

46BR.1N fibroblasts = assay: Collagen synthesis analysis (Direct red 80); type: cell-based, human; settings: 25.0 µg/mL; 6 days; Direct red 80, 550 nm, percentage of control
Protocol: 46BR.1N fibroblasts were seeded into 96-well plates, at a density of 3000 cells per well, in DMEM medium supplemented with 10% FBS. After 24 h, when the cells had attached to the plate, the medium was exchanged for a fresh one, and the cells were stimulated with appropriate concentrations of the tested peptides. Half of the medium was exchanged every two days, with additional stimulation during every medium exchange, and the cells were cultured in the presence of the peptides for six days. The medium was then removed and the cells were washed with PBS, fixed for 1 h in Bouin’s fluid (15 mL of saturated picric acid, 5 mL of 37% formaldehyde and 1 mL of acetic acid), washed in running tap water for 15 min and air dried. The cells were stained for 1 h with Direct red 80 (Sigma Aldrich, St. Louis, MO, USA) dissolved in saturated aqueous picric acid solution at a concentration of 1 mg/mL, while gently shaking the plate on a microplate shaker. The dye was removed and the cells were washed with a 0.01 M hydrochloric acid solution to remove unbound dye. The cells were photographed with a light microscope. The dye was then dissolved in 0.1 M sodium hydroxide for 30 min by shaking the plate on a microplate shaker at room temperature. The solution was transferred to a new plate and a spectrophotometric analysis was performed at 550 nm, using 0.1 N sodium hydroxide as a blank. […]

dorsal skin wounds [2] = assay: Wound healing in a dorsal skin excision model in mice; type: in vivo, BALB/c female mice
Excerpt: Eight-week-old BALB/c female mice were used for experiments. All experimental procedures were approved by the Local Ethics Committee in Bydgoszcz (Approval No. 49/2016). The mice were anesthetized with inhaled 2–5% isoflurane. The skin on the back was shaved and disinfected. The skin was folded and raised cranially and caudally along the spine. The mouse was then placed in a lateral position, and the folded skin was pierced with a 6.0 mm diameter biopsy punch, resulting in the formation of two excisional, symmetrical wounds on the back of the mouse. Before peptides administration, mice were randomly divided into treatment and control groups comprising six individuals. A total of 10 µL of 1 mg/mL peptide solution suspended in saline or fibrils solution suspended in PBS at the same concentration, was applied to each wound. Control groups received saline only. The wounds were covered with transparent Tegaderm film and an adhesive plaster was wrapped around the mouse torso. During the first week of the experiment, the wounds were treated with the peptide daily for five consecutive days along with replacement of the dressing. During the second week of the experiment, the dressing was replaced every other day with no further stimulation. For fibrils the solution was administered once after wounding and the dressing was replaced every two days. At the beginning of the third week, the dressing was removed. To measure the wound area, a ruler was placed next to the injury site, and the wound was photographed. Wound areas were calculated using ImageJ software.

dorsal skin wounds [3] = assay: Histological analysis of healed skin (Masson's trichrome); type: in vivo, BALB/c female mice; settings: skin sampled day 18 after injury
Protocol: Mice were euthanized on day 18 after the injury. Skin from their backs was sampled and stored in formalin. Samples were then embedded in paraffin, cut into 5 µm sections and stained with Masson’s trichrome staining (light green for control and FC-GHK samples and aniline blue for the FC peptide and both fibrillated peptides). Stained sections were evaluated using a light microscope.

[4] = Transmission electron microscopy of fibrils; type: physicochemical; settings: 1.0 mg/mL in PBS pH 7.4, TEM, uranyl acetate stain
Protocol: All peptides were dissolved in Eppendorf Low Retention Tubes in 1.0 mL of PBS pH 7.4. The concentration of the solutions of peptides was 1.0 mg/mL. The peptides were incubated at 37 °C with constant orbital shaking. Aliquots for the evaluation of the fibrillization process were taken before incubation and after 1, 2, 3, 6, 14, and 21 days or only after 7 days, depending on the experiments.
Peptide samples (5 µL) were applied on a glow-discharged carbon-coated copper grid (400 mesh). After 1 min of adsorption, excess liquid was removed using filter paper, and the samples were stained with 2% (v/v) aqueous uranyl acetate. The samples were examined with a TECNAI SPIRIT BIO TWIN FEI (FEI Company, Hillsboro, OR, USA) at 120 kV, with nominal magnifications between 11,500 and 39,000. The assay was performed for samples before (after dissolution) and after 3 days of incubation.

[5] = non-fibrillated peptide, 1 mg/mL in saline, five daily applications

Degradation Yes/No by human neutrophil elastase [1] | fibril thickness (TEM) [4] | Structure (SMILES) | increase in collagen synthesis (46BR.1N fibroblasts) [%] | wound closure rate compared to control (dorsal skin wounds [2]; fibrillated peptide, 10 µL of 1 mg/mL in PBS per wound, administered once, n = 16 wounds) | wound closure and scars of FC-GHK compared with FC and control (dorsal skin wounds [2]; [5]) | wound epithelialization compared with the control (dorsal skin wounds [2]; [5]) | wound state on day 14 post-injury (dorsal skin wounds [2]; [5]) | wound closure compared to the control group (dorsal skin wounds [2]; non-fibrillated peptide, 10 µL of 1 mg/mL in saline per wound, five daily applications, n = 12 wounds) | muscle cell growth in wound area (histology) (dorsal skin wounds [3]; fibrillated peptide) | muscle cell layer in restored tissue (histology) (dorsal skin wounds [3]; non-fibrillated peptide)
Yes | – | CC[C@H](C)[C@H](NC(=O)CNC(=O)[C@H](C)NC(=O)[C@H](CCC(N)=O)NC(=O)CNC(=O)CNC(=O)CNC(=O)[C@@H](NC(=O)[C@@H]1CCCN1C(=O)[C@H](C)NC(=O)[C@H](C)NC(=O)CNC(=O)CNC(=O)CNC(=O)[C@H](CCCCN)NC(=O)[C@H](Cc1c[nH]cn1)NC(=O)CNC(C)=O)C(C)C)C(=O)N[C@H](C(=O)N[C@H](C(N)=O)C(C)C)C(C)C [FC-GHK] (Ac-GHKGGGAAPVGGGQAGIVV-NH2) | 30 | the difference in wound closure rate could be observed on day 4 post-injury without statistical significance | faster wound closure than for the FC peptide and significantly smaller scars compared to the control group | increased epithelialization on the second day | closed entirely | significantly and consistently accelerated from day 2 till day 14 | No such cell growth was present | modest reconstruction of the muscle cell layer
Yes | 10–12 nm | CC[C@H](C)[C@H](NC(=O)CNC(=O)[C@H](C)NC(=O)[C@H](CCC(N)=O)NC(=O)CNC(=O)CNC(=O)CNC(=O)[C@@H](NC(=O)[C@@H]1CCCN1C(=O)[C@H](C)NC(=O)[C@H](C)NC(=O)CNC(=O)CNC(=O)CNC(=O)[C@H](CCCCN)NC(=O)[C@H](Cc1c[nH]cn1)NC(=O)CNC(=O)[C@H](CCCCN)NC(C)=O)C(C)C)C(=O)N[C@H](C(=O)N[C@H](C(N)=O)C(C)C)C(C)C [FC-KGHK] (Ac-KGHKGGGAAPVGGGQAGIVV-NH2) | 40 | – | – | – | – | – | – | –
